{"source": "paper PMC9311059", "about": "“P‐Glycoprotein and Breast Cancer Resistance Protein Transporter Inhibition by Cyclosporine and Quinidine on the Pharmacokinetics of Oral Rimegepant in Healthy Subjects” (Clinical Pharmacology in Drug Development, 2022)", "origin": "cited, not measured here", "key": {"BCRP": {"test_system": "BCRP", "set-up": "method as in ref 7 = [7]; PMID 32058712; doi:10.1021/acs.jmedchem.9b01810; 7 Dubowchik GM , Conway CM , Xin AW . Blocking the CGRP pathway for acute and preventive treatment of migraine: the evolution of success . J Med Chem . 2020; 63 ( 13 ): 6600 ‐ 6623 . 32058712 10.1021", "conditions": "in vitro; cited from earlier work"}, "[1]": {"test_system": "organic anion transporting polypeptide 1B3", "set-up": "method as in ref 7 = [7]; PMID 32058712; doi:10.1021/acs.jmedchem.9b01810; 7 Dubowchik GM , Conway CM , Xin AW . Blocking the CGRP pathway for acute and preventive treatment of migraine: the evolution of success . J Med Chem . 2020; 63 ( 13 ): 6600 ‐ 6623 . 32058712 10.1021", "conditions": "in vitro; cited from earlier work"}}, "data": [{"smiles": "N[C@@H]1c2cccnc2[C@H](OC(=O)N2CCC(n3c(=O)[nH]c4ncccc43)CC2)CC[C@H]1c1cccc(F)c1F", "note": "[Rimegepant]", "values": [{"measurement": "substrate of BCRP transporter", "setting": "BCRP", "result": "substrate"}, {"measurement": "substrate of organic anion transporting polypeptide 1B3", "setting": "[1]", "result": "not a substrate"}]}]}
